One experiment addresses T1, RORγt-LBD (Homo sapiens, UniProt P51449).
T1 sequence (P51449 269-508 limits assumed): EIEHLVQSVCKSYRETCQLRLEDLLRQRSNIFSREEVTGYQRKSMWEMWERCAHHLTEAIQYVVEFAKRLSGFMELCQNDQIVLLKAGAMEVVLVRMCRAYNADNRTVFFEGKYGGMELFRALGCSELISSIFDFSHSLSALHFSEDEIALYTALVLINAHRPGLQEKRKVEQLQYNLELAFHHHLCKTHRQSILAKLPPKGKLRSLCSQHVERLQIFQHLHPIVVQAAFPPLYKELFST
The experiment is described as follows: Time-resolved fluorescence resonance energy-transfer assay (TR-FRET), co-activator peptide recruitment. It counts as biochemical. Also noted: TR-FRET Biochemical Amax: unit not given here. Particulars: for EC50: His-RORγt-LBD 30 nM, SRC peptide 500 nM, agonistic activity, averages of one or more measurements, read-out: TR-FRET Biochemical EC50/; for TR-FRET Biochemical Amax: upper activation limit, His-RORγt-LBD, SRC peptide. From the text:
I. Time-Resolved Fluorescence Resonance Energy-Transfer Assay (TR-FRET)
This experiment was a screening experiment for RORγt nuclear receptor agonists based on TR-FRET technology. When His-labeled RORγt-LBD receptor binds to receptor agonists, it may increase the recruitment of biotin-labeled co-activator peptides. Europium-His-RORγt-LBD is indirectly labeled by donor (Eu) by binding to Eu-anti-His antibody. Once Eu is activated by an energy source (such as flashlight or laser), the energy will be transferred to the co-activator indirectly labeled by allophycocyanin by binding of allophycocyanin-streptavidin and biotin-labeled co-activator. • 1. 10× buffer (500 mM Tris-HCl, 500 mM KCl, and 10 mM Na-EDTA) was prepared, pH value was adjusted to 7.0. The buffer was stored at 4° C. for later use and was restored to normal temperature before experiment; • 2. The 10× buffer was diluted to 1× with pure water. Final concentration of 0.01% Triton X-100 and 1 mM DTT (dithiothreitol) were added to prepare the assay buffer; • 3. DMSO was used to prepare 1000× compound stock solution. The compound solution was serial-diluted in 5-fold for 7 concentrations from the top concentration of 1000 nM/10000 nM. Then the 10× compound solution was prepared with assay buffer. An amount of 2 μL was aliquoted into the 20 μL system; • 4. 5×RORγt-LBD protein solution was unfreezed, and a solution of 5× concentration was prepared with assay buffer to obtain a final concentration of 30 nM. The whole operation was carried out on ice; • 5. 5×SRC peptide was unfreezed, and a solution of 5× concentration was prepared with assay buffer to obtain a final concentration of 500 nM. The whole operation was carried out on ice; • 6. 4 μL/well of RORγt-LBD receptor was added into the testing wells of 384-well plate, and the same amount of assay buffer was added to the control wells of non-RORγt-LBD group; • 7. 2 μL of compound was added into each well of 384-well plate; • 8. 4 μL of SRC peptide was added into each well of 384-well plate; • 9. 2× Eu-anti-6× His/APC-Streptavidin was diluted with Lance detection buffer to a final concentration of 0.25 nM and 5 nM, respectively, and then 10 μL of 2× Eu-anti-6× His/APC-Streptavidin was added into each well of 384-well plate; • 10. The mixed solution was incubated at 4° C. overnight; • 11. On the morning of the next day, the 384-well plate was incubated at room temperature for 1 hr. Then the corresponding signal values were read with PerkinElmer EnVision at a wavelength of 665/615 […]. The agonistic activity of the corresponding compound was calculated with Graphpad Prism 7.0 software.
(In general: TR-FRET usually uses a lanthanide donor and a delayed reading to cut background.)

A further experiment has as its target T2, RORγt (Homo sapiens, UniProt P51449).
T2 construct: The plasmid of pFN26A-RORγt-LBD and pG14.35 (Promega, Cat. No. E1370) were co-transfected into HEK 293 cells; expressed in transfected cells; host or cells: HEK 293 cells (Cat. No. GNHu18)
T2 sequence (P51449 269-508 limits assumed): T1 sequence (P51449 269-508 limits assumed)
Nature of the experiment: RORγt cellular reporter gene detection assay.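 For Cellular Reporter Assay Amax: Ursolic Acid added as 5 µL of 20 µM medium per well.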 It counts as cell-based. The conditions noted are these: 24 hrs; for EC50: HEK 293 cells co-transfected with pFN26A-RORγt-LBD and pG14.35, in presence of antagonist Ursolic acid, top concentration 50 μM; for Cellular Reporter Assay Amax: upper activation limit, HEK 293 cells, in presence of antagonist Ursolic acid. As to the method: II. RORγt Cellular Reporter Gene Detection Assay
In this experiment, RORγt Reporter Gene Detection method was used to evaluate the activation and specificity of compounds to RORγt in cells. The plasmid of pFN26A-RORγt-LBD and pG14.35 (Promega, Cat. No. E1370) were co-transfected into HEK 293 cells (Cat. No. GNHu18). The efficacy of compounds was evaluated with the presence of an antagonist Ursolic acid (Selleck, Cat. No. S2370-100 mg). The specific experimental process was as follow: • 1. The plasmids-co-transfected cells were inoculated into a 96-well plate (Corning, Cat. No 3610) in a fresh DMEM medium (Gibco, cat. No. 1773536) containing 10% fetal bovine serum (Gibco, Cat. No. 10099-141) at 30000 cells/40 μL/well; • 2. 5 μL of medium containing 20 μM Ursolic acid was added thereto; • 3. The dose effect was evaluated by a 4-fold dilution of the test compound starting from 50 μM; • 4. 5 μL of medium containing a compound concentration of 10-fold of its final test concentration was added; • 5. After the cells were incubated at 37° C. and 5% CO2 for 24 hrs, 50 μL of detection reagent was added to detect firefly fluorescence using PerkinElmerEnVision, and 50 μL of the second detection reagent was added to detect sea kidney fluorescence; • 6. A four-parameter curve simulated in GraphPad Prism was used to determine the concentration for 50% activation (EC50) and the upper activation limit (Amax) for each compound.
On the technique in general: Reporter assays use an easily measured gene product as a stand-in for the process of interest.

For the compound `O=S(=O)(c1cccc(C(F)(F)F)c1)N1C[C@@H]2CNCCN2c2ccc(-c3cc(F)cc(OC(F)F)c3)cc21` [Example 12, (S)-8-(3-(difluoromethoxy)-5-fluorophenyl)-6-((3-(trifluoromethyl)phenyl)sulfonyl)-2,3,4,4a,5,6-hexa-hydro-1H-pyrazino[1,2-a]quinoxaline], at RORγt-LBD, the EC50 worked out at 136 nM and the “TR-FRET Biochemical Amax” value amounted to 0.67. For the same compound, at RORγt, the EC50 was 2390 nM and the “Cellular Reporter Assay Amax” value amounted to 4.3.
On the same counts, the results for `CC1(C)C=C(c2ccc3c(c2)N(S(=O)(=O)c2cccc(C(F)(F)F)c2)C[C@@H]2CNCCN32)CC(C)(C)O1` [Example 13, (S)-8-(2,2,6,6-tetramethyl-3,6-dihydro-2H-pyran-4-yl)-6-((3-(trifluorometh-yl)phenyl)sulfonyl)-2,3,4,4a,5,6-hexahydro-1H-pyrazino[1,2-a]quinoxaline] are 35.8 nM, 0.74, 1420 nM and 1.7.
On the same counts, the results for `CC(=O)N1CCN2c3ccc(/C=C/c4c(Cl)cccc4C(F)(F)F)cc3N(S(=O)(=O)c3cccc(C(F)(F)F)c3)C[C@@H]2C1` [Example 14, (S,E)-1-(8-(2-chloro-6-(tri-fluoromethyl)styryl)-6-((3-(trifluoromethyl)phenyl)sul-fonyl)-1,2,4,4a,5,6-hexa-hydro-3H-pyrazino[1,2-a]quinoxalin-3-yl)ethan-1-one] are 30.5 nM, 0.89, 69.7 nM and 3.1.
On the same counts, the results for `CC(=O)N1CCN2c3ccc(/C=C(\C)c4c(F)cccc4Cl)cc3N(S(=O)(=O)c3cccc(C(F)(F)F)c3)C[C@@H]2C1` [Example 15, (S,E)-1-(8-(2-(2-chloro-6-fluorophenyl)prop-1-en-1-yl)-6-((3-(trifluoromethyl)phenyl)sulfonyl)-1,2,4,4a,5,6-hexahydro-3H-pyrazino [1,2-a]quinoxalin-3-yl)ethan-1-one] are 25 nM, 0.83, 134 nM and 3.2.
On to `CC(=O)N1CCN2c3ccc(C4=CC(C)(C)OC(C)(C)C4)cc3N(S(=O)(=O)c3cccc(C(F)(F)F)c3)C[C@@H]2C1` [Example 16, (S)-1-(8-(2,2,6,6-tetramethyl-yl-3,6-dihydro-2H-pyran-4-yl)-6-((3-(trifluoromethyl)phenyl)sulfonyl)-1,2,4,4a, 5,6-hexahydro-3H-pyrazino [1,2-a]quinoxalin-3-yl) ethan-1-one], for which, on RORγt-LBD, the EC50 is 9.52 nM and the “TR-FRET Biochemical Amax” value was 0.78. At RORγt, the EC50 turned out to be 59 nM and the “Cellular Reporter Assay Amax” value turned out to be 2.0.
For `CS(=O)(=O)N1CCN2c3ccc(/C=C/c4c(Cl)cccc4C(F)(F)F)cc3N(S(=O)(=O)c3cccc(C(F)(F)F)c3)C[C@@H]2C1` [Example 17, (S,E)-8-(2-chloro-6-(tri-fluoromethyl)styryl)-3-(methylsulfonyl)-6-((3-(trifluoromethyl)phenyl)sulfonyl)-2,3,4,4a,5,6-hexahydro-1H-pyrazino [1,2-a]quinoxaline], in that order: 29.6 nM, 0.82, 603 nM and 4.2.
In the case of `C/C(=C\c1ccc2c(c1)N(S(=O)(=O)c1cccc(C(F)(F)F)c1)C[C@@H]1CN(S(C)(=O)=O)CCN21)c1c(F)cccc1Cl` [Example 18, (S,E)-8-(2-(2-chloro-6-fluorophenyl)prop-1-en-1-yl)-3-(methylsulfonyl)-6-((3-(trifluoromethyl)phenyl)sulfonyl)-2,3,4,4a, 5,6-hexahydro-1H-pyrazino[1,2-a]quinoxaline], at RORγt-LBD, the EC50 is 15.1 nM and the “TR-FRET Biochemical Amax” value is given as 0.62. Also, on RORγt, the EC50 is 178 nM and the “Cellular Reporter Assay Amax” value is on record as 4.3.
